Reference: BigSolDB 2.1

COc1ccc(C(=O)c2ccc(OC)cc2)cc1
solubility (mole fraction)
Details | in benzene | in ethanol | in ethyl acetate | in isobutanol | in isopropanol | in methanol | in methyl acetate | in n-butanol | in n-propanol | in n-propyl acetate
293.15 K | 0.0123 | 0.00091 | 0.00908 | 0.00101 | 0.00079 | 0.00067 | 0.00958 | 0.00114 | 0.00114 | 0.00947
298.15 K | 0.0149 | 0.00109 | 0.0111 | 0.00137 | 0.001 | 0.00081 | 0.0115 | 0.00164 | 0.00141 | 0.0112
303.15 K | 0.018 | 0.00141 | 0.0129 | 0.00168 | 0.0013 | 0.00104 | 0.0138 | 0.00214 | 0.00177 | 0.0126
308.15 K | 0.0221 | 0.00188 | 0.0155 | 0.00237 | 0.00193 | 0.00134 | 0.0166 | 0.00306 | 0.00224 | 0.0151
313.15 K | 0.0278 | 0.0024 | 0.0189 | 0.00313 | 0.00241 | 0.00181 | 0.0204 | 0.0036 | 0.00314 | 0.0187
318.15 K | 0.0338 | 0.00302 | 0.023 | 0.00404 | 0.00308 | 0.00219 | 0.0248 | 0.00457 | 0.00403 | 0.0229
323.15 K | 0.041 | 0.00402 | 0.0284 | 0.00539 | 0.00423 | 0.00286 | 0.0311 | 0.00612 | 0.00538 | 0.0277
328.15 K | 0.0504 | 0.00516 | 0.0343 | 0.00718 | 0.00549 | 0.0037 | 0.0376 | 0.00824 | 0.00707 | 0.0329
333.15 K | 0.063 | 0.00653 | 0.0408 | 0.00972 | 0.0075 | 0.00473 | – | 0.00996 | 0.00928 | 0.0406
